The source of these data is patent US11725036B2, “Modified lipidated relaxin B chain peptides and their therapeutic use” (Sanofi, priority 2018, dated 2023).

The target in this assay is T1, RXFP1 (Homo sapiens, UniProt Q9HBX9).
T1 construct: OVCAR5 cells expressing endogenous RXFP1; endogenous in cells; host or cells: OVCAR5
T1 sequence (Q9HBX9 1-757): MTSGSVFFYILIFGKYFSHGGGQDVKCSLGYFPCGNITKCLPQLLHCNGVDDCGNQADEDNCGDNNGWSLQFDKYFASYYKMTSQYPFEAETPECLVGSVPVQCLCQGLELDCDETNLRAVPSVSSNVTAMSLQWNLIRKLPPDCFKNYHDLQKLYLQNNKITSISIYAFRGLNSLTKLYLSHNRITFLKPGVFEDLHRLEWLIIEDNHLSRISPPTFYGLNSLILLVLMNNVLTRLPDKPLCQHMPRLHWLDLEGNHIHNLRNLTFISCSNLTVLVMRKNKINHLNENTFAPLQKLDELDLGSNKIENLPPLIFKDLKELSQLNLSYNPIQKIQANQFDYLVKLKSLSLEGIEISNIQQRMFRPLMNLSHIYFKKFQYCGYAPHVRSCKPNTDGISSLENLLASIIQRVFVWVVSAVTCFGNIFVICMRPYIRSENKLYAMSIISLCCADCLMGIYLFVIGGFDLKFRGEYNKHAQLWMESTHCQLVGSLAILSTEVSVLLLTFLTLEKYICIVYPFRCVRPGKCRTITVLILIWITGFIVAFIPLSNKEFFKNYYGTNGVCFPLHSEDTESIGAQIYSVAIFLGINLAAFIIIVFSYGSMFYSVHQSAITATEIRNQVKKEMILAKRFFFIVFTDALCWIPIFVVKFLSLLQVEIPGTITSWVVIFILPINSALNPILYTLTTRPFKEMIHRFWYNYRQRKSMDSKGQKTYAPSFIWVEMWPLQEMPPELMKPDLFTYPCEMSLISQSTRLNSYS
Put plainly: OVCAR5 cAMP assay (HTRF). In kind it is cell-based. As to conditions: for EC50: OVCAR 5 cells expressing endogenous RXFP1, cAMP readout; for Emax: OVCAR 5 cells, maximal cAMP relative to H2-relaxin. Summed up:
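Endogenous RXFP1 in OVCAR5 cells, pretreated 40 min at 37° C with 1 mM IBMX, then exposed to increasing peptide concentrations in serum-free medium for 30 min at 37° C. cAMP read by HTRF; EC50 by variable-slope sigmoidal fit, Emax as % of H2-relaxin maximal cAMP in same run.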
On the technique in general: Changes in cAMP serve as a functional read-out for many G protein-coupled receptors.

A word on the EC50: it is the concentration that produces a half-maximal response. A low value points to higher potency in that assay. As usually defined, the Emax is the size of the effect at its maximum, as opposed to the concentration needed.

Each structure is given as a SMILES string. Starred links: 1 amine or outer side, 2 acyl side, 3 side chain; linkers in the order of their positions; H or OH if unused. Non-standard residues stand in square brackets, D forms with d. Residues, ends and D or L forms follow the SMILES beside them. Groups on a side chain read outwards from the residue. *: point of attachment. X12 = CCCCCCCCCCCCCCCCCC(=O)N[C@@H](CCC(=O)N[C@@H](CCC(=O)N[C@@H](CCC(=O)N[C@@H](CCC(=O)NCCCOCCOCCOCCCNC(=O)CCC(=O)NCCCOCCOCCOCCCNC(=O)CCC(=O)NCCCOCCOCCOCCCNC(=O)CCC(=O)NCCCOCCOCCOCCCN*)C(=O)O)C(=O)O)C(=O)O)C(=O)O; X16 = CCCCCCCCCCCCCCCCCC(=O)N[C@@H](CCC(=O)N[C@@H](CCC(=O)N[C@@H](CCC(=O)NCCCOCCOCCOCCCNC(=O)CCC(=O)NCCCOCCOCCOCCCNC(=O)CCC(=O)NCCCOCCOCCOCCCNC(=O)CCC(=O)NCCCOCCOCCOCCCN*)C(=O)O)C(=O)O)C(=O)O; X3 = CCCCCCCCCCCCCCCCCC(=O)N[C@@H](CCC(=O)N[C@@H](CCC(=O)N[C@@H](CCC(=O)NCCCOCCOCCOCCCNC(=O)CCC(=O)NCCCOCCOCCOCCCNC(=O)CCC(=O)NCCCOCCOCCOCCCN*)C(=O)O)C(=O)O)C(=O)O; X1 = CCCCCCCCCCCCCCCC(=O)N[C@@H](CCC(=O)N[C@@H](CCC(=O)N[C@@H](CCC(=O)NCCCOCCOCCOCCCNC(=O)CCC(=O)NCCCOCCOCCOCCCNC(=O)CCC(=O)NCCCOCCOCCOCCCN*)C(=O)O)C(=O)O)C(=O)O; Cit = NC(=O)NCCC[C@H](N)C(=O)O; Suc = O=C(CCC(=O)[*:2])[*:1]; αMeK = C[C@](N)(CCCCN)C(=O)O; hLys = NCCCCC[C@H](N)C(=O)O; Aib = CC(C)(N)C(=O)O

Regarding `CCCCCCCCCCCCCCCCCC(=O)N[C@@H](CCC(=O)N[C@@H](CCC(=O)N[C@@H](CCC(=O)NCCCOCCOCCOCCCNC(=O)CCC(=O)NCCCOCCOCCOCCCNC(=O)CCC(=O)NCCCOCCOCCOCCCNC(=O)CCC(=O)NCCCC[C@H](NC(=O)CNC(=O)[C@H](CCC(=O)O)NC(=O)C(C)(C)NC(=O)C(C)(C)NC(=O)[C@@H](NC(=O)[C@H](CCCNC(N)=O)NC(=O)[C@H](C)NC(=O)[C@H](CCCNC(=N)N)NC(=O)[C@@H](NC(=O)[C@H](CCCCN)NC(=O)[C@H](CCC(=O)O)NC(=O)[C@H](CCCNC(=N)N)NC(=O)CNC(=O)[C@H](CCC(=O)O)NC(=O)[C@H](CC(C)C)NC(C)=O)C(C)C)[C@@H](C)CC)C(=O)N[C@@H](CO)C(=O)N[C@H](C(=O)N[C@@H](Cc1ccccc1)C(=O)N[C@@H](CO)C(=O)N[C@@](C)(CCCCN)C(=O)N[C@@H](CCCNC(=N)N)C(=O)N[C@@H](C)C(=O)N[C@@H](CCCCNC(C)=O)C(N)=O)[C@@H](C)O)C(=O)O)C(=O)O)C(=O)O` [compound 56] (Ac-LEGREKVRA[Cit]I[Aib][Aib]EGK([Suc-X3])STFS[αMeK]RAK(Ac)-NH2), the EC50 is 0.15 nM and the Emax is 91%.
The molecule `CCCCCCCCCCCCCCCC(=O)N[C@@H](CCC(=O)N[C@@H](CCC(=O)N[C@@H](CCC(=O)NCCCOCCOCCOCCCNC(=O)CCC(=O)NCCCOCCOCCOCCCNC(=O)CCC(=O)NCCCOCCOCCOCCCNC(=O)CCC(=O)NCCCC[C@H](NC(=O)CNC(=O)[C@H](CCC(=O)O)NC(=O)C(C)(C)NC(=O)C(C)(C)NC(=O)[C@@H](NC(=O)[C@H](CCCCNC(C)=O)NC(=O)[C@H](C)NC(=O)[C@H](CCCNC(=N)N)NC(=O)[C@@H](NC(=O)[C@H](CCCCN)NC(=O)[C@H](CCC(=O)O)NC(=O)[C@H](CCCNC(=N)N)NC(=O)CNC(=O)[C@H](CCC(=O)O)NC(=O)[C@H](CC(C)C)NC(C)=O)C(C)C)[C@@H](C)CC)C(=O)N[C@@H](CO)C(=O)N[C@H](C(=O)N[C@@H](Cc1c[nH]c2ccccc12)C(=O)N[C@@H](CO)C(=O)N[C@@H](CCCCCN)C(=O)N[C@@H](CCCNC(=N)N)C(=O)N[C@@H](C)C(=O)N[C@@H](CCCCNC(C)=O)C(N)=O)[C@@H](C)O)C(=O)O)C(=O)O)C(=O)O` [compound 57] (Ac-LEGREKVRAK(Ac)I[Aib][Aib]EGK([Suc-X1])STWS[hLys]RAK(Ac)-NH2) displayed an EC50 of 0.44 nM and an Emax of 98%.
`CCCCCCCCCCCCCCCCCC(=O)N[C@@H](CCC(=O)N[C@@H](CCC(=O)N[C@@H](CCC(=O)NCCCOCCOCCOCCCNC(=O)CCC(=O)NCCCOCCOCCOCCCNC(=O)CCC(=O)NCCCOCCOCCOCCCNC(=O)CCC(=O)NCCCOCCOCCOCCCNC(=O)CCC(=O)NCCCC[C@H](NC(=O)CNC(=O)[C@H](CCC(=O)O)NC(=O)C(C)(C)NC(=O)C(C)(C)NC(=O)[C@@H](NC(=O)[C@H](CCCCNC(C)=O)NC(=O)[C@H](C)NC(=O)[C@H](CCCNC(=N)N)NC(=O)[C@@H](NC(=O)[C@H](CCCCN)NC(=O)[C@H](CCC(=O)O)NC(=O)[C@H](CCCNC(=N)N)NC(=O)CNC(=O)[C@H](CCC(=O)O)NC(=O)[C@H](CC(C)C)NC(C)=O)C(C)C)[C@@H](C)CC)C(=O)N[C@@H](CO)C(=O)N[C@H](C(=O)N[C@@H](Cc1c[nH]c2ccccc12)C(=O)N[C@@H](CO)C(=O)NC(C)(C)C(=O)N[C@@H](CCCNC(=N)N)C(=O)N[C@@H](CCCCN)C(=O)N[C@@H](CCCCNC(C)=O)C(N)=O)[C@@H](C)O)C(=O)O)C(=O)O)C(=O)O` [compound 58] (Ac-LEGREKVRAK(Ac)I[Aib][Aib]EGK([Suc-X16])STWS[Aib]RKK(Ac)-NH2): the Emax turned out to be 98%.
The same measure, in the same setting: the figure for `CCCCCCCCCCCCCCCCCC(=O)N[C@@H](CCC(=O)N[C@@H](CCC(=O)N[C@@H](CCC(=O)N[C@@H](CCC(=O)NCCCOCCOCCOCCCNC(=O)CCC(=O)NCCCOCCOCCOCCCNC(=O)CCC(=O)NCCCOCCOCCOCCCNC(=O)CCC(=O)NCCCOCCOCCOCCCNC(=O)CCC(=O)NCCCC[C@H](NC(=O)CNC(=O)[C@H](CCC(=O)O)NC(=O)C(C)(C)NC(=O)C(C)(C)NC(=O)[C@@H](NC(=O)[C@H](CCCCNC(C)=O)NC(=O)[C@H](C)NC(=O)[C@H](CCCNC(=N)N)NC(=O)[C@@H](NC(=O)[C@H](CCCCN)NC(=O)[C@H](CCC(=O)O)NC(=O)[C@H](CCCNC(=N)N)NC(=O)CNC(=O)[C@H](CCC(=O)O)NC(=O)[C@H](CC(C)C)NC(C)=O)C(C)C)[C@@H](C)CC)C(=O)N[C@@H](CO)C(=O)N[C@H](C(=O)N[C@@H](Cc1c[nH]c2ccccc12)C(=O)N[C@@H](CO)C(=O)NC(C)(C)C(=O)N[C@@H](CCCNC(=N)N)C(=O)N[C@@H](CCCCN)C(=O)N[C@@H](CCCCNC(C)=O)C(N)=O)[C@@H](C)O)C(=O)O)C(=O)O)C(=O)O)C(=O)O` [compound 59] (Ac-LEGREKVRAK(Ac)I[Aib][Aib]EGK([Suc-X12])STWS[Aib]RKK(Ac)-NH2) is 99%.
